Data: US11351192B2, “De-colonization drug, preparation method therefor, and application thereof” (BEIJING HYGIENE & HEALTHCARE INNOVATION TECHNOLOGY CO., LTD., priority 2017, dated 2022)

System: multi-drug resistant bacteria
Assay type: in vivo, hospitalized patients
Text: Using the case-control experiment, all newly-increased patients with multi-drug resistant bacteria in the cooperative hospital are selected for a period of time. The hospitalized patients are divided into the control group and the experimental group, and the control group is selected to be applied intranasally with mupirocin for 5 consecutive days and twice daily.
During the experiment, it can be found by electron microscopy at 200-fold whether mucosa has interstitial edema, inflammatory cell infiltration or surface epithelial cell shedding; it can show by electron microscopy at 6000-fold whether the mitochondria in the glandular epithelial cells are swollen or edema, it can show by electron microscopy at 10000-fold whether the morphology and structure of the ciliated epithelial cells is normal. FIGS. 1 and 2 are the electron microscopic images of the nasal mucosa by electron microscopy at 200-fold.

[1] = hospitalized patients, decolonization drug twice a day 3 days, mupirocin twice daily 5 days

SMILES: C/C(=C\C(=O)OCCCCCCCCC(=O)O)C[C@@H]1OC[C@H](C[C@@H]2O[C@H]2[C@@H](C)[C@H](C)O)[C@@H](O)[C@H]1O [mupirocin]
- cases of methicillin-resistant Staphylococcus aureus (MRSA) [1]: 35 cases
- cases of multi-drug resistant bacteria [1]: 120 cases
- ratio of MRSA cases among multi-drug resistant bacteria cases [1]: 29.16%
- adverse reactions (edema and hyperemia symptoms of nasal mucosa) (human, in vivo, 5 days): 2
